Assay results from patent US20250059144A1, “Tellurium-containing compounds and the use of treating bacterial infections thereof” (Kaohsiung Medical University, priority 2021, published 2025).
“And” between values parts separate entries of the source, which are not always exact repeats. Equal values may be shown once. Read-outs that look alike come from different tables or passages of the source.

What was measured:
[1] = tested on: Acinetobacter baumannii strain AB03; experiment: Carbapenem-resistant Acinetobacter baumannii sepsis infection model; assay type: in vivo; conditions: 40 mg/kg/day, 3 days treatment, A. baumannii AB03 septic mice
Protocol: For establishing the carbapenem-resistant Acinetobacter baumannii sepsis infection model, 12 mice were separated in each group and were infected with the standard Acinetobacter baumannii strain AB03 with lethal dosage by intraperitoneal injection. The compound (c) was given to test groups at the dosage of 0.33, 1.67 and 3.33 mg/kg/day for 3 days treatment, respectively. The clinical standard therapy colistin methanesulfonate (CMS) (40 mg/kg/day) was selected as compared drug. 1×PBS was given as placebo group. Mice survival rate were observed four times a day and were recorded as the curve.

[2] = tested on: Acinetobacter baumannii strain AB03; experiment: MIC in cation-adjusted Muller-Hinton broth; assay type: cell-based
Source text: (§1) Compound (c) was therefore used for further evaluation of anti-bacterial activities to carbapenem resistant bacteria involving Escherichia coli, Klebsiella pneumoniae, Pseudomonas aeruginosa, and Acinetobacter baumannii in the following experiments.

Escherichia coli CRE-415 = experiment: MIC in cation-adjusted Muller-Hinton broth; assay type: cell-based
Source text: as §1

[3] = tested on: Klebsiella pneumoniae strain CRE-723; experiment: MIC in cation-adjusted Muller-Hinton broth; assay type: cell-based
Source text: as §1

[4] = tested on: Klebsiella pneumoniae ATCC BAA-1705; experiment: MIC in cation-adjusted Muller-Hinton broth; assay type: cell-based
Source text: as §1

[5] = tested on: Pseudomonas aeruginosa strain PA13; experiment: MIC in cation-adjusted Muller-Hinton broth; assay type: cell-based
Source text: as §1

[6] = Acute toxicity test (survival, LD50); assay type: in vivo; conditions: male mice; for survival rate: one week observation
Protocol: In terms of acute toxicology, the dose-response relationship is represented in S-shaped curve. It is not easy to obtain the LD50 value directly through the experiment. Therefore, the animal survival rate of 20˜80% must be used as the benchmark, and the LD50 value is obtained by calculating the dose and survival rate of the area. Six male mice of each group were injected with 15, 20, and 25 mg/kg of compound (c) by intraperitoneal injection. After a week of behavior and physiological observations, the survival rate was recorded and applied for linear regression.

[7] = Histopathological lesion evaluation and severity score of surviving mice; assay type: in vivo
Protocol: In the experiment, 2 mice in the 20 and 25 mg/kg groups were randomly selected for euthanasia, the tissues involving heart, liver, spleen, lung, kidney, stomach, small intestine, large intestine, pancreatic were sliced and stained and were used for histopathological lesion evaluation and severity score by a professional pathology veterinarian (Disease Animal Special Certificate No. 0040).
Extremely light to slight monocyte infiltration in the heart was a lesion that were occasionally observed by a normal mouse might be irrelevant to experimental disposal, and a small number of monocyte infiltration cells could be observed in the portal vein area of the liver of most mice. Mild to moderate hepatocyte glycogen deposition were found in all mice, and significant swollen occurred in their liver cells, this was a common background lesions in normal mice in the case of sacrifice without sufficient fasting. It was worth noting that slight necrosis of the liver was only seen in No. 25-2. Increased mitosis in liver cell is one of the common regeneration or hyperplasia reactions for liver tissue damage. Compared with normal liver tissue, damaged liver tissue may have more mitosis cells, but it is also occasionally seen in normal mice. The mice of Nos. 20-1 and 25-2 had extremely slight to mild hepatocytes increased mitosis. It might be irrelevant to experimental disposal since the degree of increased mitosis was extremely mild to mild and was not related to the dose. Extramedullary hematopoiesis (EMH) are common lesions of mice liver tissue, it can be considered as background lesion if the degree is extremely mild. […] Besides, EMH is also common lesions occurred in spleen of mice and may exist in normal mice, the mild degree of EMH may be therefore considered as background lesions. Extremely mild to mild EMH lesions were found in spleen tissues of all mice. It could be found in the number 25-2 mouse spleen that its lymphoid follicle had multiple extremely mild apoptosis lesions, but no tissue necrosis was found. […] Chronic progressive nephropathy (CPN) involving lesions of tubule basophilia, basement membrane thickening, mononuclear inflammatory cells infiltration, glomerulosclerosis, or tubule dilatation is the most common kidney lesions in the kidney tissues of mice. The cause of CPN is unknown, it can be found in normal mice, and the incidence is increased depend on ages, male mice have a higher incidence than female mice. Therefore, it is generally not recommended to score CPN lesion separately. CPN may also occur after drug administration, it should be considered as treatment-related lesions if the severities have a significant difference in group differences. In this study, there were moderate or higher CPN lesions in each mouse kidney tissue, except for mouse of No. 25-2. However, the difference was not related to the dose and might not be related to the experimental disposal.

[8] = tested on: carbapenem-resistant Klebsiella pneumoniae (n = 34); experiment: MICs in carbapenem-resistant isolate panel; assay type: cell-based; conditions: K. pneumoniae (n = 34)
Source text: as §1
(§2) 34 carbapenem-resistant Klebsiella pneumoniae, 34 carbapenem-resistant Escherichia coli, 29 carbapenem-resistant Pseudomonas aeruginosa isolated from infected blood, and 28 carbapenem-resistant Acinetobacter baumannii isolated from infected blood were selected to evaluate the anti-bacterial activities of compounds (c).

[9] = tested on: carbapenem-resistant Escherichia coli (n = 34); experiment: MICs in carbapenem-resistant isolate panel; assay type: cell-based; conditions: E. coli (n = 34)
Source text: as §1, §2

[10] = tested on: carbapenem-resistant Pseudomonas aeruginosa isolated from infected blood (n = 29); experiment: MICs in carbapenem-resistant isolate panel; assay type: cell-based; conditions: P. aeruginosa (n = 29)
Source text: as §1, §2

[11] = tested on: carbapenem-resistant Acinetobacter baumannii isolated from infected blood (n = 28); experiment: MICs in carbapenem-resistant isolate panel; assay type: cell-based; conditions: A. baumannii (n = 28)
Source text: as §1, §2

[12] = AB03, read-out: MIC A. baumannii strain AB03
[13] = CRE415, read-out: MIC E. coli CRE-415
[14] = CRE723, read-out: MIC K. pneumoniae strain CRE-723
[15] = ATCCBAA1705, read-out: MIC K. pneumoniae ATCC BAA-1705
[16] = PA13, read-out: MIC P. aeruginosa strain PA13
[17] = 20 mg/kg, mice 20-1, 20-2, day 7
[18] = 25 mg/kg, mice 25-1, 25-2, day 7

**Q.** With colistin methanesulfonate [CMS] as the compound, how does the survival rate [1] read?
**A.** Its survival rate is 16.7%.

**Q.** With `Cc1cc[n+]2c(c1)-c1cc(C)cc[n+]1[TeH]2(Cl)(Cl)Cl` [compound (g)] as the compound, how does the MIC [2, 12] read?
**A.** The MIC was 4 µg/mL.

**Q.** And the MIC (Escherichia coli CRE-415; [13])?
**A.** The MIC was 16 µg/mL.

**Q.** And the MIC [3, 14]?
**A.** Its MIC is 16 µg/mL.

**Q.** What about the MIC [4, 15] of the same compound?
**A.** The MIC was 16 µg/mL.

**Q.** What about the MIC [5, 16] of the same compound?
**A.** The MIC was 4 µg/mL.

**Q.** Which MIC [2, 12] does the source give for `Cl[TeH]1(Cl)(Cl)[n+]2cccc3ccc4ccc[n+]1c4c32` [compound (f)] here?
**A.** Its MIC is 1 µg/mL.

**Q.** And the MIC (Escherichia coli CRE-415; [13])?
**A.** The MIC was 8 µg/mL.

**Q.** What about the MIC [3, 14] of the same compound?
**A.** The MIC was 4 µg/mL.

**Q.** And the MIC [4, 15]?
**A.** The MIC was 8 µg/mL.

**Q.** And the MIC [5, 16]?
**A.** The MIC was 2 µg/mL.

**Q.** Which results are given for `CN1CCN(C)[TeH]1(Cl)(Cl)Cl` [compound (c)]?
**A.** survival rate ([6]; 15 mg/kg intraperitoneal): 100%; survival rate ([6]; 20 mg/kg intraperitoneal): 83.3%; survival rate ([6]; 25 mg/kg intraperitoneal): 33.3%; LD50 ([6]; intraperitoneal, linear regression of 20 and 25 mg/kg survival): 23.3 mg/kg; Heart Mononuclear cells infiltration severity score [7, 17]: 0; Heart Necrosis/ degeneration severity score [7, 17]: 0; Kidney Nephropathy, chronic progressive (CPN) severity score [7, 17]: 3 and 4; Large intestine Erosion/ ulcer severity score [7, 17]: 0; Large intestine Mononuclear cells infiltration severity score [7, 17]: 0; Liver Extramedullary hematopoiesis, EMH severity score [7, 17]: 1 and 2; Liver Glycogen deposition severity score [7, 17]: 3 and 4; Liver Increased mitosis severity score [7, 17]: 0; Liver Necrosis/ degeneration severity score [7, 17]: 0; Lung Mononuclear cells infiltration severity score [7, 17]: 0; Lung Necrosis/ degeneration severity score [7, 17]: 0; Pancreas Mononuclear cells infiltration severity score [7, 17]: 0; Pancreas Necrosis severity score [7, 17]: 0; Small intestine Erosion/ ulcer severity score [7, 17]: 0; Small intestine Mononuclear cells infiltration severity score [7, 17]: 0; Spleen Apoptosis severity score [7, 17]: 0; Spleen Extramedullary hematopoiesis, EMH severity score [7, 17]: 2; Spleen Necrosis severity score [7, 17]: 0; Stomach Erosion/ ulcer severity score [7, 17]: 0; Stomach Mononuclear cells infiltration severity score [7, 17]: 0; Heart Necrosis/ degeneration severity score [7, 18]: 0; Large intestine Erosion/ ulcer severity score [7, 18]: 0; Large intestine Mononuclear cells infiltration severity score [7, 18]: 0; Liver Increased mitosis severity score [7, 18]: 0; Liver Mononuclear cells infiltration severity score [7, 18]: 1; Lung Mononuclear cells infiltration severity score [7, 18]: 0; Lung Necrosis/ degeneration severity score [7, 18]: 0; Pancreas Mononuclear cells infiltration severity score [7, 18]: 0; Pancreas Necrosis severity score [7, 18]: 0; Small intestine Erosion/ ulcer severity score [7, 18]: 0; Small intestine Mononuclear cells infiltration severity score [7, 18]: 0; Spleen Extramedullary hematopoiesis, EMH severity score [7, 18]: 2 and 1; Spleen Necrosis severity score [7, 18]: 0; Stomach Erosion/ ulcer severity score [7, 18]: 0; Stomach Mononuclear cells infiltration severity score [7, 18]: 0

**Q.** For `Cl[TeH]1(Cl)(Cl)[n+]2ccccc2-c2cccc[n+]21` [compound (b)], which MIC [2, 12] is on record?
**A.** Its MIC is 2 µg/mL.

**Q.** What about the MIC (Escherichia coli CRE-415; [13]) of the same compound?
**A.** The MIC was 4 µg/mL.

**Q.** And the MIC [3, 14]?
**A.** Its MIC is 16 µg/mL.

**Q.** And the MIC [4, 15]?
**A.** The MIC was 16 µg/mL.

**Q.** What about the MIC [5, 16] of the same compound?
**A.** The MIC was 4 µg/mL.

**Q.** Which results are given for `Cl[TeH]1(Cl)(Cl)[n+]2ccccc2SSc2cccc[n+]21` [compound (e)]?
**A.** MIC [2, 12]: 4 µg/mL; MIC (Escherichia coli CRE-415; [13]): 4 µg/mL; MIC [3, 14]: 32 µg/mL; MIC [4, 15]: 16 µg/mL; MIC [5, 16]: 16 µg/mL

**Q.** Which MIC range [8] does the source give for `Cl[TeH]1(Cl)(Cl)OCCO1` [AS101] here?
**A.** Its MIC range is <0.5~16 μg/mL.

**Q.** And the MIC50 ([8]; Klebsiella pneumoniae)?
**A.** Its MIC50 is 2 µg/mL.

**Q.** And the MIC90 ([8]; Klebsiella pneumoniae)?
**A.** The MIC90 was 16 µg/mL.

**Q.** And the MIC range [9]?
**A.** The MIC range was 0.5~32 μg/mL.

**Q.** And the MIC50 ([9]; Escherichia coli)?
**A.** The MIC50 was 4 µg/mL.

**Q.** And the MIC90 ([9]; Escherichia coli)?
**A.** The MIC90 was 8 µg/mL.

**Q.** And the MIC50 [10]?
**A.** The MIC50 was 64 µg/mL.

**Q.** What about the MIC90 [10] of the same compound?
**A.** The MIC90 was over 64 µg/mL.

**Q.** What about the MIC range [11] of the same compound?
**A.** The MIC range was <0.5~8 μg/mL.

**Q.** And the MIC50 ([11]; Acinetobacter baumannii)?
**A.** Its MIC50 is 2 µg/mL.

**Q.** What about the MIC90 ([11]; Acinetobacter baumannii) of the same compound?
**A.** Its MIC90 is 4 µg/mL.

**Q.** With `Cl[Te]1(Cl)Nc2ccccc2N1` [compound (a)] as the compound, how does the MIC [2, 12] read?
**A.** The MIC was 1 µg/mL.

**Q.** What about the MIC (Escherichia coli CRE-415; [13]) of the same compound?
**A.** The MIC was 1 µg/mL.

**Q.** What about the MIC [3, 14] of the same compound?
**A.** The MIC was 2 µg/mL.

**Q.** What about the MIC [4, 15] of the same compound?
**A.** The MIC was 4 µg/mL.

**Q.** What about the MIC [5, 16] of the same compound?
**A.** The MIC was 2 µg/mL.

**Q.** Which results are given for `Cc1ccc2[n+](c1)[TeH](Cl)(Cl)(Cl)[n+]1cc(C)ccc1-2` [compound (h)]?
**A.** MIC [2, 12]: 4 µg/mL; MIC (Escherichia coli CRE-415; [13]): 4 µg/mL; MIC [3, 14]: 16 µg/mL; MIC [4, 15]: 8 µg/mL; MIC [5, 16]: 8 µg/mL

**Q.** What does the source list for `[2H]C1([2H])O[TeH](Cl)(Cl)(Cl)OC1([2H])[2H]` [compound (d)]?
**A.** MIC ([2]; AB03, CAMHB, read-out: MIC A. baumannii strain AB03): 1 µg/mL; MIC (Escherichia coli CRE-415; CRE415, CAMHB, read-out: MIC E. coli CRE-415): 1 µg/mL; MIC ([3]; CRE723, CAMHB, read-out: MIC K. pneumoniae strain CRE-723): 8 µg/mL; MIC ([4]; ATCCBAA1705, CAMHB, read-out: MIC K. pneumoniae ATCC BAA-1705): 8 µg/mL; MIC ([5]; PA13, CAMHB, read-out: MIC P. aeruginosa strain PA13): 1 µg/mL
